Data as given in US9855230B2 (ViiV Healthcare UK (No. 5) Limited, priority 2014, dated 2018).
Where a name gives a salt, the structure may show the parent alone. Read-outs that look alike come from different tables or passages of the source.

Columns and labels:
[1] = tested on: recombinant NL4-3 virus (nef section replaced with Renilla luciferase gene) in MT-2 cells; experiment: whole plant or invertebrate; type: cell-based, HIV
Excerpt: A recombinant NL4-3 proviral clone, in which a section of the nef gene was replaced with the Renilla luciferase gene, was used to make the reference virus used in these studies.
Supernatent was harvested after 2-3 days and the amount of virus present was titered in MT-2 cells using luciferase enzyme activity as a marker by measuring luciferase enzyme activity. Luciferase was quantitated using the EnduRen Live Cell Substrate from Promega (Madison, Wis.). Antiviral activities of compounds toward the recombinant virus were quantified by measuring luciferase activity in MT-2 cells infected for 4-5 days with the recombinant virus in the presence of serial dilutions of the compound.

[2] = Compound cytotoxicity (CC50), XTT-based colorimetric assay; type: cell-based; conditions: human; uninfected MT2 cells, day 4, XTT assay
Protocol: Compound cytotoxicity and the corresponding CC50 values were determined using the same protocol as described in the antiviral assay except that uninfected cells were used. Cytotoxicity was assessed on day 4 in uninfected MT2 cells by using a XTT (2,3-bis[2-Methoxy-4-nitro-5-sulfophenyl]-2H-tetrazolium-5-carboxyanilide inner salt)-based colorimetric assay (Sigma-Aldrich, St Louis, Mo.).

[3] = NL43, luciferase activity in MT-2 cells infected 4-5 days with recombinant NL4-3 virus, read-out: Activity
[4] = NL43, luciferase activity in MT-2 cells infected 4-5 days with recombinant NL4-3 virus, read-out: EC50

Row | Compound | EC50 [1, 3] [nM] | EC50 [1, 4] [nM] | CC50 at 4 day [2] [nM] | EC50 ([1]; NL43, read-out: Activity) [nM]
1 | Cc1ccccc1S(=O)(=O)NC(=O)N[C@@H](Cc1ccccc1)c1nccn1-c1ccc(OCc2ccccc2)cc1 [Example 30, (S)-N-((1-(1-(4-(benzyloxy)phenyl)-1H-imidazol-2-yl)-2-phenylethyl)carbamoyl)-2-methylbenzenesulfonamide] | 100 to 1000 | 280 | > 100000 | –
2 | Cc1cc(-c2cccnc2[C@@H](Cc2cc(F)cc(F)c2)NC(=O)NS(=O)(=O)c2ccccc2Cl)c(C)s1 [Example 104, (R)-2-chloro-N-((2-(3,5-difluorophenyl)-1-(3-(2,5-dimethylthiophen-3-yl)pyridin-2-yl)ethyl)carbamoyl)benzenesulfonamide, TFA] | > 1000 | – | > 33000 | –
3 | CCOc1ccc(-n2ccnc2[C@H](Cc2ccccc2)NC(=O)NS(=O)(=O)c2ccccc2C)cc1 [Example 7, (S)-N-((1-(1-(4-ethoxyphenyl)-1H-imidazol-2-yl)-2-phenylethyl)carbamoyl)-2-methylbenzenesulfonamide] | < 100 | – | > 100000 | –
4 | CCOc1cccc(-n2ccnc2[C@H](Cc2ccccc2)NC(=O)NS(=O)(=O)c2ccccc2C)c1 [Example 24, (S)-N-((1-(1-(3-ethoxyphenyl)-1H-imidazol-2-yl)-2-phenylethyl)carbamoyl)-2-methylbenzenesulfonamide] | 100 to 1000 | 600 | > 100000 | –
5 | Cc1ccc2cc(-n3ccnc3[C@H](Cc3ccccc3)NC(=O)NS(=O)(=O)c3ccccc3C)ccc2n1 [Example 67, (S)-2-methyl-N-((1-(1-(2-methylquinolin-6-yl)-1H-imidazol-2-yl)-2-phenylethyl)carbamoyl)benzenesulfonamide] | < 100 | – | > 100000 | –
6 | COC(=O)Nc1ccc(-c2cccnc2[C@H](Cc2cc(F)cc(F)c2)NC(=O)NS(=O)(=O)c2ccccc2C)cc1 [Example 89, (S)-methyl (4-(2-(2-(3,5-difluorophenyl)-1-(3-(o-tolylsulfonyl)ureido)ethyl)pyridin-3-yl)phenyl)carbamate] | – | – | > 100000 | 100 to 1000
7 | Cc1ccccc1S(=O)(=O)NC(=O)N[C@@H](Cc1ccccc1)c1nccn1-c1ccc(-c2ccoc2)cc1 [Example 59, (S)-N-((1-(1-(4-(furan-3-yl)phenyl)-1H-imidazol-2-yl)-2-phenylethyl)carbamoyl)-2-methylbenzenesulfonamide] | < 100 | – | > 33000 | –
8 | O=C(N[C@@H](Cc1ccccc1)c1nccn1-c1ccc2c(c1)CCO2)NS(=O)(=O)c1ccccc1F [Example 75, (S)-N-((1-(1-(2,3-dihydrobenzofuran-5-yl)-1H-imidazol-2-yl)-2-phenylethyl)carbamoyl)-2-fluorobenzenesulfonamide] | < 100 | 20 | > 100000 | –
9 | CCCC(=O)Nc1cccc(-n2ccnc2[C@H](Cc2ccccc2)NC(=O)NS(=O)(=O)c2ccccc2C)c1 [Example 79, (S)-N-(3-(2-(2-phenyl-1-(3-(o-tolylsulfonyl)ureido)ethyl)-1H-imidazol-1-yl)phenyl)butyramide] | > 1000 | – | > 100000 | –
10 | COc1ccc(-n2ccnc2[C@H](Cc2ccccc2)NC(=O)NS(=O)(=O)c2ccccc2C)cc1 [Example 1, (S)-N-((1-(1-(4-methoxyphenyl)-1H-imidazol-2-yl)-2-phenylethyl)carbamoyl)-2-methylbenzene-sulfonamide] | < 100 | – | > 100000 | –
11 | COC(=O)Nc1ccc(-n2ccnc2[C@H](Cc2ccccc2)NC(=O)NS(=O)(=O)c2ccccc2OC)cc1 [Example 44, (S)-methyl (4-(2-(1-(3-((2-methoxyphenyl)sulfonyl)ureido)-2-phenylethyl)-1H-imidazol-1-yl)phenyl)carbamate] | < 100 | – | > 100000 | –
12 | COC(=O)Nc1ccc(-c2cccnc2[C@@H](Cc2ccccc2)NC(=O)NS(=O)(=O)c2ccccc2Cl)cc1 [Example 111, (R)-methyl (4-(2-(1-(3-((2-chlorophenyl)sulfonyl)ureido)-2-phenylethyl)pyridin-3-yl)phenyl)carbamate, TFA] | > 1000 | 30400 | 82000 | –
